Patent US10688099B2, “Methods for modulating the amount of RNA transcripts” (PTC Therapeutics, Inc., priority 2013, dated 2020)

System: RNA isoforms in PNN 1-46 SMA type I patient-derived fibroblasts
Experiment: RNA Abundance Modulation (RNA isoform abundance, iFPM, HiSeq RNA sequencing)
Format: cell-based, human
Settings: 3 μM
Protocol: Cells from a cell line of interest are cultured in conditions sufficient to yield the number of cells capable of generating enough RNA for subsequent sequencing steps. Cells from the tested cell line are contacted with a compound described herein.
To culture said cells, they are seeded, at appropriate concentrations in a volume of media in a cell culture container and incubated for 4, 5, 6, 7, 8, 9, 10, or more hours. A concentrated solution of compound in a vehicle (e.g., DMSO) is then added in sufficient volume to result in the intended final concentration of the compound, for example 100 nM, 500 nM, 1 μM, 5 μM, 10 μM, 15 μM, 20 μM, or more. The cells may also be treated with vehicle alone, as a control. A number of replicates of each concentration or control may be made (e.g., 2 replicates). The cells are then incubated at a constant temperature appropriate for cell culture of the particular cell line (e.g., 37° C.) for 6, 12, 18, 24, 48, or more hours. After incubation, the growth medium is removed and the cells are washed with the appropriate buffer (e.g., PBS). Cells are then removed from adherence to the cell culture container by treatment with a solution containing trypsin, and the trypsin subsequently quenched with the appropriate volume of buffer (e.g., DMEM-FBS). The cells are then pelleted with gentle centrifugation (e.g., ≤90×g centrifugal force) and resuspended in a buffer to lyse the cells for extraction of RNA. The cell lysates may then be frozen (e.g., at −80° C.) or, alternately, may immediately be used in a procedure to purify the RNA (e.g. by use of the RNEASY PLUS® minikit). The RNA from cell lysates is eluted in the appropriate volume of buffer (e.g., RNEASE-FREE H2O®). The resulting purified RNA may then be sequenced (e.g., using RNASeq) or analyzed using a human exon array (e.g., by GENECHIP® human exon array) to determine changes in the RNA levels in those cells treated with compound compared to those cells treated only with DMSO. The purified RNA may also be quantified by other methods known in the art.
Using the RNA data obtained from sequencing, exon array, or other methods, a statistical analysis can reveal changes in the RNA levels of compound-treated compared with control. For example, t-test p-values may be calculated for the data obtained through sequencing and exon array methods in order to compare compound-treated cells to those treated with the DMSO control. […] Analysis of the sequencing and exon array data may then also yield predictions about the cause of the aberrant amount of an RNA transcript in the cells (e.g., perturbation of RNA splicing, RNA transcription, or RNA stability). These predictions may be further confirmed by methods known in the art. For example, RT-PCR and RT-qPCR may be used to confirm the change in amount of RNA transcripts for one or more particular transcripts of interest.
Following the methods described above in Example 1, PNN 1-46 SMA type I patient-derived fibroblasts were treated with 300 nM or 3 μM Compounds 774 and 808 in 0.5% DMSO.
700,000 cells were seeded in 10 mL of medium (DMEM plus 10% FBS) in a T-75 flask. Cells were allowed to attach for at least 4 hrs, after which 50 μL of a 200× compound solution (100% DMSO) was added to each well, and the plate was incubated at 37° C. for 24 hrs.
At the end of the incubation period, the supernatant was removed and the cells where washed with PBS. TrypLE (Invitrogen) express solution was added (e.g. 1.5 mL per one T75 flask). The flasks were incubated for 3 to 5 min at 37° C. The trypsin was then quenched, e.g., by adding 10 mL DMEM-FBS.
Next, the cells were pelleted using gentle centrifugation without exceeding 90×g centrifugal force. The supernatant was removed and the cell pellet was re-suspended in 600 μL RLT buffer (the RLT buffer was supplemented with beta-mercaptoethanol according to the RNeasy protocol manual) by pipetting up and down until the pellet was completely dissolved […]

CCc1nc(C)cn2nc(-c3cc(=O)n4cc(C5CCN(C)CC5)cc(C)c4n3)cc12 [Compound 774]
amp FC (x + 1) (TGFBRAP1 NM_004257): 156.98
ave Cpd (TGFBRAP1 NM_004257): 0 iFPM
FC (x + 1) (TGFBRAP1 NM_001142621): 1.6224
L2FC (x + 1) (TGFBRAP1 NM_001142621): 0.698
L2abs (Cpd-DMSO) (TGFBRAP1 NM_001142621): 7.42
abs (Cpd-DMSO) (TGFBRAP1 NM_001142621): 172 iFPM
amp FC (x + 1) (TGFBRAP1 NM_001142621): 1.62
ave Cpd (TGFBRAP1 NM_001142621): 446 iFPM
FC (x + 1) (THADA AK025445): 0.2651
L2FC (x + 1) (THADA AK025445): −1.915
L2abs (Cpd-DMSO) (THADA AK025445): 5.17
abs (Cpd-DMSO) (THADA AK025445): 36 iFPM
amp FC (x + 1) (THADA AK025445): 3.77
ave Cpd (THADA AK025445): 12 iFPM
FC (x + 1) (THADA AK126824): 0.1808
L2FC (x + 1) (THADA AK126824): −2.468
L2abs (Cpd-DMSO) (THADA AK126824): 2.55
abs (Cpd-DMSO) (THADA AK126824): 6 iFPM
amp FC (x + 1) (THADA AK126824): 5.53
ave Cpd (THADA AK126824): 0 iFPM
FC (x + 1) (THADA AK307915): 0.2071
L2FC (x + 1) (THADA AK307915): −2.272
L2abs (Cpd-DMSO) (THADA AK307915): 3.71
abs (Cpd-DMSO) (THADA AK307915): 13 iFPM
amp FC (x + 1) (THADA AK307915): 4.83
ave Cpd (THADA AK307915): 2 iFPM
FC (x + 1) (THADA AL832141): 1.7328
L2FC (x + 1) (THADA AL832141): 0.793
L2abs (Cpd-DMSO) (THADA AL832141): 0.72
abs (Cpd-DMSO) (THADA AL832141): 2 iFPM
amp FC (x + 1) (THADA AL832141): 1.73
ave Cpd (THADA AL832141): 3 iFPM
FC (x + 1) (THADA AY149632): 1.0000
L2FC (x + 1) (THADA AY149632): 0.000
L2abs (Cpd-DMSO) (THADA AY149632): 0
abs (Cpd-DMSO) (THADA AY149632): 0 iFPM
amp FC (x + 1) (THADA AY149632): 1.00
ave Cpd (THADA AY149632): 0 iFPM
FC (x + 1) (THADA BX641038): 0.6958
L2FC (x + 1) (THADA BX641038): −0.523
L2abs (Cpd-DMSO) (THADA BX641038): 0.60
abs (Cpd-DMSO) (THADA BX641038): 2 iFPM
amp FC (x + 1) (THADA BX641038): 1.44
ave Cpd (THADA BX641038): 2 iFPM
FC (x + 1) (THADA NM_022065): 0.3170
L2FC (x + 1) (THADA NM_022065): −1.658
L2abs (Cpd-DMSO) (THADA NM_022065): 9.36
abs (Cpd-DMSO) (THADA NM_022065): 657 iFPM
amp FC (x + 1) (THADA NM_022065): 3.15
ave Cpd (THADA NM_022065): 304 iFPM
FC (x + 1) (THADA NM_001083953): 0.0135
L2FC (x + 1) (THADA NM_001083953): −6.211
L2abs (Cpd-DMSO) (THADA NM_001083953): 6.19
abs (Cpd-DMSO) (THADA NM_001083953): 73 iFPM
amp FC (x + 1) (THADA NM_001083953): 74.06
ave Cpd (THADA NM_001083953): 0 iFPM
FC (x + 1) (THADA NM_001271643): 1.1557
L2FC (x + 1) (THADA NM_001271643): 0.209
L2abs (Cpd-DMSO) (THADA NM_001271643): 2.41
abs (Cpd-DMSO) (THADA NM_001271643): 5 iFPM
amp FC (x + 1) (THADA NM_001271643): 1.16
ave Cpd (THADA NM_001271643): 38 iFPM
FC (x + 1) (THADA NM_001271644): 4.4176
L2FC (x + 1) (THADA NM_001271644): 2.143
L2abs (Cpd-DMSO) (THADA NM_001271644): 3.80
abs (Cpd-DMSO) (THADA NM_001271644): 14 iFPM
amp FC (x + 1) (THADA NM_001271644): 4.42
ave Cpd (THADA NM_001271644): 17 iFPM
FC (x + 1) (THADA NR_073394): 0.6844
L2FC (x + 1) (THADA NR_073394): −0.547
L2abs (Cpd-DMSO) (THADA NR_073394): −0.13
abs (Cpd-DMSO) (THADA NR_073394): 1 iFPM
amp FC (x + 1) (THADA NR_073394): 1.46
ave Cpd (THADA NR_073394): 1 iFPM
FC (x + 1) (TIMP2 AK294290): 0.0109
